Measured values reported in patent publication US20250282742A1, “BENZOFURAN DERIVATIVES FOR TARGETING AUTOPHAGY” (Automera PTE. LTD, priority 2024, published 2025).

Biological target: T1, Recombinant p62 protein (Homo sapiens, UniProt Q13501)
T1 construct: Recombinant p62 protein was buffer exchanged into Biacore SPR running buffer
Assay: Surface plasmon resonance (SPR) compound binding to immobilised p62
Details: recombinant p62, 15° C
Description: Example 28: Surface Plasmon Resonance (SPR) Analysis
Recombinant p62 protein was buffer exchanged into Biacore SPR running buffer (Cytiva 100671) using the Slide-A-Lyzer Mini Dialysis system 7K MWCO (Thermo Fisher Scientific, Cat no. 69560). The final protein concentration was determined using the Nanodrop One spectrophotometer (Thermo Fisher Scientific, cat no. ND-ONE-W), with calibration for the dialysis buffer.
The prepared protein was diluted in sodium acetate buffer (NaAc, pH 5.5, Cytiva) to concentrations ranging from approximately 0.25-40 μg/mL. Post-immobilization, the protein required approximately 16 hours of equilibration in running buffer supplemented with 1% DMSO at 15° C. to ensure adequate surface equilibration and protein reorganization.
All SPR experiments were conducted at a constant temperature of 15° C. The SPR chip surface was activated using EDC/NHS for a contact time of 6-10 min at a flow rate of 10 μL/min. This was followed by protein immobilization for 2100 seconds and ethanolamine capping for 420 seconds, both at the same flow rate. Immediately after immobilization, the NH2—REEE peptide was analyzed in Single Cycle Kinetics mode (SCK) to verify surface activity, ensuring it binds the sample with the published affinity (−20 μM by SPR).
For general compound binding studies, experiments were performed at 15° C. using a running buffer composed of 10 mM HEPES, 150 mM NaCl, 1 mM DTT, 0.05% Tween 20, and 1% DMSO at pH 7.4. The test compound was initially prepared at a 20 mM concentration in DMSO and subsequently titrated in 2-fold dilutions. For each assay, 2 μL of the compound was mixed with 198 μL of the running buffer, and the mixture was thoroughly pipetted approximately 15 times for homogenization.
A series of blank injections (0 μM concentration) were included for double referencing, with at least 8 or 16 per plate depending on the format. Typical injection parameters were 120 seconds for association and 180 seconds for dissociation at a flow rate of […]. A four-point solvent correction was prepared with DMSO concentrations ranging from 2% to 0.5% in the buffer. Post each compound injection, the system's needles were washed with 50% DMSO.
Analysis of the SPR data was conducted using the Cytiva Evaluation software. The binding levels at the late time-point of each interaction were corrected for reference, then normalized to percentage bound values to account for variations in immobilization levels, protein molecular weight, and compound molecular weight.
Compound binding studies were carried out according to experimental procedures above and SPR % occupancy was determined and summarized in Table 7.

T1 sequence (Q13501 whole entry, species assumed): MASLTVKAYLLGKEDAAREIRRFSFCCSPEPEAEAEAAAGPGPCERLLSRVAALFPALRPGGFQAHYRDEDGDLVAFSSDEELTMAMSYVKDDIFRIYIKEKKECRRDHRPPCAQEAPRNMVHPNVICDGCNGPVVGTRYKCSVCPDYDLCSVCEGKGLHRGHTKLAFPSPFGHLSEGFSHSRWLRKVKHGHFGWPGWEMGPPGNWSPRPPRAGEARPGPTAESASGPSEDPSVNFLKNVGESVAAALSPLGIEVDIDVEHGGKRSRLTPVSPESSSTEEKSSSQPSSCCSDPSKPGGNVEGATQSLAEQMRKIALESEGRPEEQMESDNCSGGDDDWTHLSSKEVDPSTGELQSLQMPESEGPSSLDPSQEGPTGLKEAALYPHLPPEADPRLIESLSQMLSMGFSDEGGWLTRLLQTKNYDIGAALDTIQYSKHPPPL

SMILES | receptor occupancy at 100 µM
Cc1c(Cc2ccccc2)oc2cc(CNCCO)ccc12 [Compound 42, 2-(((2-benzyl-3-methylbenzofuran-6-yl)methyl)amino)ethan-1-ol] | 30 to 70%
OCCNCc1ccc2cc(-c3ccccc3)oc2c1 [Compound 2, 2-(((2-phenylbenzofuran-6-yl)methyl)amino)ethan-1-ol] | 30 to 70%
OCCNCc1ccc2cc(Cc3ccc(Cl)cc3)oc2c1 [Compound 13, 2-(((2-(4-chlorobenzyl)benzofuran-6-yl)methyl)amino)ethan-1-ol] | > 70%

Other lines, results leading:

receptor occupancy at 100 µM | SMILES
30 to 70% | OCCNCc1ccc2cc(CCc3ccc(F)cc3)oc2c1 [Compound 49, 2-(((2-(4-fluorophenethyl)benzofuran-6-yl)methyl)amino)ethan-1-ol]
< 30% | OCCNCc1ccc2cc(Cc3ccccc3)oc2c1 [compound 1]
> 70% | OCCNCc1ccc2cc(Cc3ccc(F)cc3)oc2c1 [compound 12]
